Experimental data taken from ChEMBL document CHEMBL1933015, “Synthesis and evaluation of novel prodrugs of caspase inhibitors” (Bioorg Med Chem Lett, 2012).

Tests used:
[1] = Tmax in Sprague-Dawley rat at 10 mg/kg, po; type: ADME, organism-based; design: dose 10 mg/kg, route oral; details: in vivo
[2] = Half life in Sprague-Dawley rat at 10 mg/kg, po; type: ADME, organism-based; design: dose 10 mg/kg, route oral; details: in vivo
[3] = AUC (0 to infinity) in Sprague-Dawley rat at 10 mg/kg, iv; type: ADME, organism-based; design: time infinity, dose 10 mg/kg, route intravenous; details: plasma
[4] = Half life in Sprague-Dawley rat at 10 mg/kg, iv; type: ADME, organism-based; design: dose 10 mg/kg, route intravenous; details: in vivo
[5] = AUC (0 to infinity) in Sprague-Dawley rat at 10 mg/kg, po; type: ADME, organism-based; design: time infinity, dose 10 mg/kg, route oral; details: plasma
[6] = Clearance in Sprague-Dawley rat at 10 mg/kg, iv; type: ADME, organism-based; design: dose 10 mg/kg, route intravenous; details: in vivo
[7] = Oral bioavailability in Sprague-Dawley rat at 10 mg/kg; type: ADME, organism-based; details: in vivo
[8] = Half life in buffer at pH 6 assessed as prodrug conversion; type: physicochemical
[9] = Permeability from basal to apical side across human Caco2 cells; type: ADME, cell-based; details: Caco-2, read-out: permeability
[10] = Half life in buffer at pH 7.4 assessed as prodrug conversion; type: physicochemical
[11] = Permeability from apical to basal side across human Caco2 cells; type: ADME, cell-based; details: Caco-2, read-out: permeability
Plasma [12] = experiment: Half life in rat plasma assessed as < 50% of prodrug is remaining; type: ADME, cell-free
[13] = Half life in buffer at pH 9 assessed as prodrug conversion; type: physicochemical
[14] = Half life in buffer at pH 4 assessed as prodrug conversion; type: physicochemical
Plasma [15] = experiment: Half life in human plasma assessed as around 50% of prodrug is remaining; type: ADME, cell-free
Rattus norvegicus [16] = experiment: Oral bioavailability in Sprague-Dawley rat assessed as VX166 level at 10 mg/kg; type: ADME, organism-based; details: in vivo
Plasma [17] = experiment: Half life in rat plasma assessed as < 10% of prodrug is remaining; type: ADME, cell-free
Plasma [18] = experiment: Half life in human plasma assessed as < 50% of prodrug is remaining; type: ADME, cell-free
Rattus norvegicus [19] = experiment: Tmax in Sprague-Dawley rat assessed as VX166 level at 10 mg/kg, po; type: ADME, organism-based; design: dose 10 mg/kg, route oral; details: in vivo
Rattus norvegicus [20] = experiment: AUC (0 to infinity) in Sprague-Dawley rat assessed as VX166 level in plasma at 10 mg/kg, po; type: ADME, organism-based; design: time infinity, dose 10 mg/kg, route oral; details: in vivo
Rattus norvegicus [21] = experiment: Half life in Sprague-Dawley rat assessed as prodrug conversion to VX166 at 10 mg/kg, po; type: ADME, organism-based; design: dose 10 mg/kg, route oral; details: in vivo

SMILES | t1/2 [8] [min] | Papp B→A [9] [×10⁻⁶ cm/s] | t1/2 [10] [min] | Papp A→B [11] [×10⁻⁶ cm/s] | t1/2 [13] [min] | t1/2 [14] [min] | t1/2 (Plasma [15]) [min] | t1/2 (Plasma [17]) [min] | also measured
CC[C@@H](C(=O)N[C@@H](CC(=O)O)C(=O)COc1c(F)c(F)cc(F)c1F)n1cccc(NC(=O)OC)c1=O | – | – | – | – | – | – | – | – | Tmax [1]: 19.8 min; half-life [2]: 91.8 min; AUC(0-inf) [3]: 6160 ng·h/mL; half-life [4]: 31.8 min; AUC(0-inf) [5]: 860 ng·h/mL; clearance [6]: 22.3 mL/min/kg; bioavailability [7]: 14%
C[C@H](NC(=O)C(=O)Nc1ccccc1C(C)(C)C)C1=N[C@H]2CC(=O)O[C@@]2(COc2c(F)c(F)cc(F)c2F)O1 | 1490 | 10 | 1780 | 0.5 | 438 | 72 | 1 | – | t1/2 (Plasma [12]): < 1 min
CC[C@@H](C1=N[C@H]2CC(=O)O[C@@]2(COc2c(F)c(F)cc(F)c2F)O1)n1cccc(NC(=O)OC)c1=O | 522 | – | 192 | – | 42 | 108 | – | < 1 | F (Rattus norvegicus [16]): 27%; t1/2 (Plasma [18]): < 1 min; Tmax (Rattus norvegicus [19]): 37.8 min; AUC (Rattus norvegicus [20]): 1660 ng·h/mL; t1/2 (Rattus norvegicus [21]): 58.2 min
O=C1C[C@@H]2N=C(c3cccc4ccccc34)O[C@]2(CF)O1 | 792 | – | 240 | – | 48 | 864 | 1 | < 1 | –
C[C@H](NC(=O)C(=O)Nc1ccccc1C(C)(C)C)C(=O)N[C@@H](CC(=O)O)C(=O)COc1c(F)c(F)cc(F)c1F [EMRICASAN] | – | 10 | – | 0.5 | – | – | – | – | –
